Read-outs that look alike come from different tables or passages of the source.
Columns and labels:
Assay type in all cases: cell-based, murine
HC e/n XVB cells = experiment: Whole-cell patch-clamp recording of ligand-activated currents; conditions: for ligand-activated currents (electrophysiological recordings): membrane potential clamped to -70mV; for ligand-induced inward currents (result in words): differentiated HC e/n XVB cells, AMPA 100µM, NMDA 1mM, kainate 1mM, glutamate 1mM
Description: (§1) Electrophysiological setup: Membrane currents were measured with the patchclamp technique in the whole-cell recording configuration (Hamill et al. 1981, Pfluegers Arch. 391:85-100). Current signals were amplified with conventional electronics (EPC-9 amplifier, HEKA Elektronik GmbH, Lambrecht, Germany), filtered at 10kHz, and sampled at 5 kHz by an interface connected to an IBM AT-compatible computer system, which also served as a stimulus generator.
(§2) Solutions and electrodes: The standard bathing solution contained (in mM): Nacl 150, KCL 5, MgCl2 1.8, HEPES 5, and glucose 10. In some experiments an equimolar amount of NaCl was replaced by 5mM BaCl2. Recording pipettes had resistances about 5MΩ (Hilgenberg, Malsfeld, Germany). The pipettes contained (in mM): KCL 140, CaCl2 0.5, EGTA 5, MgCl2 2, and HEPES 10. The pH was adjusted to 7.4. In some experiments the pipette solution was designed to minimize the contribution of voltage-activated currents. In this case, investigating the ligand-activated currents, the pipette solution contained (in mM): CsCl 140, EGTA 10, and HEPES 10.
(§3) Ligands were dissolved in the extracellular saline solution and applied via an U-tube application system. To record ligand-induced currents, the membrane potential was clamped to -70mV. For measurements of voltage-activated currents, cells were held at -70mV and every second the membrane was stepped through a 50 msec. de- or hyperpolarising test pulse to a potential between -170 and +20 mV.

HNMMCV13.1.F = experiment: Ca2+-imaging (Fura-2) of intracellular calcium after application of agonists; conditions: for rise in intracellular calcium concentration (result in words): HNMMCV13.1.F, concentrations (glutamate 10µM to 10 mM; AMPA, kainic acid, serotonine, dopamine, carbachol up to 1mM; NMDA up to 500µM)
Description: (§4) Fluorescent Probe: Dynamic changes of intracellular calcium concentration were measured using the Fura-2 fluorescent probe (Roe et al. 1990, Cell Calcium 11:63-73). This fluorescent dye was chosen because of its selectivity, high quantum yield and extinction co-efficient. Fura-2 permeates the living cell as a acetoxymethylester and becomes trapped within the cell after hydrolysis by intracellular esterases. The calcium-sensitive free acid of Fura-2 is able to bind to calcium ions inside the cell. Fura-2 has an excitation maximum at 380 nm and the Fura2/calcium complex peaks at 340 nm. A change in intracellular calcium concentration was calculated by recording fluorescent video images at wavelengths of 340nm and 380nm excitation and 510nm emission and by dividing the grey values of the digitized video images of 380nm from 340nm.
(§5) Loading cells with Fura-2: A stock solution with 2mM Fura-2-acetoxymethylester in dimethylsulfoxide (DMSO) was diluted to 5-10 µM with serum free Minimal Essential Medium (MEM, Gibco) containing 1.5% bovine serum albumin and 5 mM calcium chloride. The cells were incubated in a Falcon 96 well plate for 45-60 minutes at 37°C. Subsequently the cells were washed twice in N-(2-Hydroxyethyl)piperazine-N'-(2-ethanesulfonic acid) (HEPES, 5mM) buffered Tyrode solution (HEPES buffered salt solution containing 130 mM NaCl, 5 mM KCl, 2 mM CaCl2, 1 mM MgCl2, 5mM NaHCO3, 11 mM Glucose).
(§6) Imaging procedure: 100 µl of Tyrode buffer was added to the plate wells and the cells were sequencially exposed to light at 340 nm and 380 nm under a fluorescent microscope (Nikon Diaphot). The exposition time was 100 ms. A series of video images at 3 second intervals was acquired and stored as digitised pictures in the image boards of an image analysis computer (Leica, Quantimet 570). After the acquisition of 8 images the test substances were applied. The grey levels of the cells, which correspond to the fluorescence intensity, were measured in the recorded video images. The ratio was determined by dividing the measured grey levels of the "380 nm images" by the grey levels of the "340 nm images" either from averaged images or from individual cells. For averaged results, the grey levels were measured over the whole images.
(§7) The cells were loaded with Fura 2/AM between day 3 and 7 in culture. A number of agonists were tested for their ability to activate specific receptors on the cell surface which lead to a rise in intracellular calcium. The rise in calcium concentration in the cytoplasm can occur after activation of specific calcium channels in the cell membrane, after activation of neurotransmitter receptors directly coupled to ion channels that are permeable to calcium ions (i.e. NMDA or AMPA type glutamate receptors), or by activation of receptors, which propagate the signal through the activation of specific G-proteins, which regulate the activity of different enzymes in the interior of the cell (Connor, Cell Calcium 14 (1993), 185-200; Crouch and Hendry, Medical Res. Rev. 13 (1993), 105-123). The activation of phospholipase C generates the second messengers diacylglycerol and inositoltriphosphate from phospholipids in the cell membrane. The binding of inositoltriphosphate to receptors localised on internal vesicles which store calcium ions leads to a transient rise in the concentration of calcium ions in the cytoplasm (Berridge, M.J. 1993, Nature 361: 315-325).

HNMMCV11.2.0 = experiment: as above; conditions: HNMMCV11.2.0
Description: as §4, §5, §6, §7

HC e/n XV.B cells = experiment: as above
Description: as §4, §5, §6, §7

HNMMCV13.1.E = experiment: as above; conditions: HNMMCV13.1.E
Description: as §4, §5, §6, §7

HNMMCV14.1.A [1] = experiment: as above; conditions: HNMMCV14.1.A
Description: as §4, §5, §6, §7

HNMMCV14.1.A [2] = experiment: Whole-cell patch-clamp recording of ligand-activated currents; conditions: 14.1.A; membrane potential clamped to -70mV
Description: as §1, §2, §3

[3] = tested on: metabotropic glutamate receptor(s) (mGluR) expressed by HNMMCV14.1A cells; experiment: Phosphoinositide hydrolysis: accumulation of 3H-inositol phosphates; conditions: for EC50: read-out: EC50 inositolphosphate accumulation
Description: Phosphoinositide hydrolysis was determined by measuring the accumulation of ^3H-inositol phosphates. The cells were plated in 48-well plates (Costar) at a density of 10000 cells per well and incubated for 4-5 days at 37°C, 7% CO2. Then the cells were labeled by incubation with 4 µCi of myo-2-^3H-inositol per ml medium (specific activity: […]: Amersham). After 24 h LiCl (10 mM final concentration) was added to the cells for 1 h. Agonists were then added at the concentrations indicated. The incubation was stopped after 1 h by replacing the medium with 200 µl ice-cold methanol. 400 µl of destilled water was added and the sample was directly applied to AG-1X8 ion exchange columns (AG-1X8 resin: BioRad). Free inositol and glycerophosphoryl-inositol were washed away with 16 ml destilled water followed by 10 ml 5 mM disodium-tetraborate, 60 mM sodium formate. Total ^3H-inositol phosphates (IP1, IP2, IP3) were eluted with 7 ml of 100 mM formic acid, 1 M ammonium formate. Radioactivity of the eluted ^3H-inositol phosphates was determined by liquid scintillation counting after addition of 13 ml liquid scintillation cocktail (Ultima Gold: Canberra Packard). Measurements were performed in triplicates for each experimental point. Untreated controls were set as 100% and the other values calculated in relation to this.
The columns were prepared as follows: 1 ml pipet tips were filled with one glass bead (Roth) per tip before adding 500 µl AG-1X8 resin. The resin was compressed with air and 270 µl seasand was applied. Until use they were stored at 4°C.

[4] = HC e/n XV.B cells, state of differentiation not stated, up to 1mM
[5] = HNMMCV14.1A cells, agonist 1 h, LiCl 10 mM
[6] = differentiated HC e/n XV.B cells

## Cc1onc(O)c1CC(N)C(=O)O (centres unmarked) [AMPA, ∝-amino-3-hydroxy-5-methyl-4-isoxazol-propionic acid]
HC e/n XVB cells; XV. B/ - EGF
  ligand-activated currents (electrophysiological recordings): + (+: 10-30% positive cells)
HC e/n XVB cells
  ligand-induced inward currents (result in words): evoked responses
HNMMCV13.1.F
  rise in intracellular calcium concentration (result in words): did not result in a transient rise
HNMMCV11.2.0
  rise in intracellular calcium concentration (result in words): did not result in a transient rise
HC e/n XV.B cells; undifferentiated HC e/n XV.B cells
  rise in intracellular calcium concentration (result in words): did not result in a transient rise
HNMMCV13.1.E
  rise in intracellular calcium concentration (result in words): did not result in a transient rise
HNMMCV14.1.A [1]
  rise in intracellular calcium concentration (result in words): did not result in a transient rise

## CC(=O)OCC[N+](C)(C)C [Acetylcholine, acetylcholine]
HC e/n XVB cells; XV. B/ - EGF
  ligand-activated currents (electrophysiological recordings): -
HNMMCV14.1.A [2]
  ligand-activated currents (electrophysiological recordings): + (+: 10-30% positive cells)

## N#Cc1cc2[nH]c(=O)c(=O)[nH]c2cc1[N+](=O)[O-] [CNQX, 6-nitro-7-cyanochinoxalin-2,3-dione]
HNMMCV13.1.F; glutamate 100µM, CNQX 100µM, cells not given, Table 5 gives 13.1.F
  antagonism of the calcium signals recorded after application of glutamate: not antagonised

## C[N+](C)(C)CCOC(N)=O [Carbachol]
HC e/n XV.B cells; [4]
  rise in intracellular calcium concentration (result in words): reproducible signal

## NCCc1ccc(O)c(O)c1 [Dopamine, dopamine]
HNMMCV13.1.F
  rise in intracellular calcium concentration (result in words): did not lead to a specific signal
HNMMCV11.2.0
  rise in intracellular calcium concentration (result in words): did not lead to a specific signal
HC e/n XV.B cells; [4]
  rise in intracellular calcium concentration (result in words): did not lead to a specific signal
HNMMCV13.1.E
  rise in intracellular calcium concentration (result in words): did not lead to a specific signal
HNMMCV14.1.A [1]
  rise in intracellular calcium concentration (result in words): did not lead to a specific signal

## NCCCC(=O)O [GABA]
HC e/n XVB cells; XV. B/ - EGF
  ligand-activated currents (electrophysiological recordings): +++ (+++: 70-100% positive cells)
HC e/n XVB cells; XV. B
  ligand-activated currents (electrophysiological recordings): + (+: 10-30% positive cells)
HC e/n XVB cells
  ligand-induced inward currents (result in words): prominent resonses
HNMMCV14.1.A [2]
  ligand-activated currents (electrophysiological recordings): ++ (++: 30-70% positive cells)

## CN[C@H](CC(=O)O)C(=O)O [NMDA, N-methyl-D-aspartate]
HC e/n XVB cells; XV. B/ - EGF
  ligand-activated currents (electrophysiological recordings): ++ (++: 30-70% positive cells)

## N[C@@H](Cn1oc(=O)[nH]c1=O)C(=O)O [Quisqualate, quisqualate]
[3]; HNMMCV14.1A cells
  effect on inositolphosphate accumulation (result in words): concentration dependent increase
  maximum response of inositolphosphate accumulation compared with glutamate: slightly weaker
[3]; [5]
  EC50: 0.02 µM

## NCCc1c[nH]c2ccc(O)cc12 [Serotonine]
HNMMCV13.1.F
  rise in intracellular calcium concentration (result in words): did not lead to a specific signal
HNMMCV11.2.0
  rise in intracellular calcium concentration (result in words): did not lead to a specific signal
HC e/n XV.B cells; [4]
  rise in intracellular calcium concentration (result in words): did not lead to a specific signal
HNMMCV13.1.E
  rise in intracellular calcium concentration (result in words): did not lead to a specific signal
HNMMCV14.1.A [1]
  rise in intracellular calcium concentration (result in words): did not lead to a specific signal

## CN1CCc2cc3c(cc2[C@H]1[C@@H]1OC(=O)c2c1ccc1c2OCO1)OCO3 [bicuculline]
HC e/n XVB cells
  effect on the GABA-response: blocked

## NC(C(=O)O)c1cc(O)no1 (centres unmarked) [ibotenate]
[3]
  effect on inositolphosphate accumulation (result in words): concentration dependent increase
  maximum response of inositolphosphate accumulation compared with glutamate: slightly weaker
  EC50: 5 µM

## NCc1cc(=O)[nH]o1 [muscimol]
HC e/n XVB cells; HC e/n XVB cells
  effect on the GABA-response: mimicked

## N[C@@]1(C(=O)O)CC[C@@H](C(=O)O)C1 [t-ACPD, 1S3R-aminocyclopentane-1,3-dicarboxylate]
HNMMCV13.1.F
  rise in intracellular calcium concentration (result in words): strong
HNMMCV11.2.0
  rise in intracellular calcium concentration (result in words): strong
HC e/n XV.B cells; [6]
  rise in intracellular calcium concentration (result in words): weak signals
HNMMCV13.1.E
  rise in intracellular calcium concentration (result in words): strong
HNMMCV14.1.A [1]
  rise in intracellular calcium concentration (result in words): strong
[3]; HNMMCV14.1A cells
  effect on inositolphosphate accumulation (result in words): concentration dependent increase
  maximum response of inositolphosphate accumulation compared with glutamate: slightly weaker
[3]; [5]
  EC50: 20 µM

## L-carboxycyclopropylglycin [L-CCG 1]
HNMMCV13.1.F
  rise in intracellular calcium concentration (result in words): strong
HNMMCV11.2.0
  rise in intracellular calcium concentration (result in words): strong
HC e/n XV.B cells; [6]
  rise in intracellular calcium concentration (result in words): weak signals
HNMMCV13.1.E
  rise in intracellular calcium concentration (result in words): strong
HNMMCV14.1.A [1]
  rise in intracellular calcium concentration (result in words): strong

— patent publication EP0773287A1, “Immortalised embryonic hyppocampal cells and their use” (BAYER AG, priority 1995, dated 1997)
